Laboratory results reported in patent US9175013B2, “Fused aminodihydrothiazine derivatives” (Eisai R&D Management Co., Ltd., priority 2011, dated 2015).
Read-outs that look alike come from different tables or passages of the source.

What was measured:
[1] = Plasma protein binding (PPB), rapid equilibrium dialysis; assay type: in vitro ADME; conditions: male, Sprague Dawley, rat, 37° C., 6 h dialysis
Procedure: Method for Determination of Plasma Protein Binding (PPB) and Brain Tissue Binding (BTB) Compound Preparation • Compounds were dissolved in DMSO to give a 1 mg free base/mL solution, before further dilution to 100 μg/mL in acetonitrile (100 μL of 1 mg/mL into 900 μL acetonitrile). Matrix Preparation • On the morning of dialysis, control male Sprague Dawley rat plasma and brain, previously stored at −80° C. were thawed at room temperature. Plasma was checked for pH and if necessary adjusted to 7.4 with 1M HCl. Plasma was then centrifuged (2000 g for 10 min) and the brains diluted with 2 mL of Phosphate Buffered Saline (pH 7.4) per gram of tissue and homogenised using a mechanical homogeniser. An aliquot (10 μL) of the 100 μg/mL acetonitrile compound solution was then added to 1 mL of plasma and brain homogenate and vortex mixed to give a final compound concentration of 1 μg/mL in matrix. RED Plate Preparation • The Rapid Equilibrium Dialysis (RED) plate (Thermo Scientific) was prepared in accordance with the manufacturers guidelines i.e. the base plate was soaked in 20% (v/v) ethanol for 10 min and then rinsed twice with deionised water before being allowed to dry. The base plate was then filled with the appropriate number of disposable inserts (n=3 per compound) (Thermo Scientific) and matrix containing 1 μg/mL compound added into the matrix chamber of the inserts (200 μL) and an aliquot (350 μL) of PBS added to the buffer chamber. The plate was then covered with an adhesive and incubated in air at 37° C. for 6 h with 130 rpm agitation. Sampling • Following the 6 h incubation, the seal was removed and an aliquot (50 μL) taken from the PBS chambers and dispensed into Micronics tubes. Also, an aliquot (50 μL) was removed from the matrix chambers and placed into separate Micronics tubes. Plasma and brain was then matrix matched with 50 μL of drug-free PBS and the PBS samples with 50 μL of the corresponding drug-free matrix, to give equal final compositions and volumes […]. Sample Analysis • Samples were vortex mixed and an aliquot (300 μL) of acetonitrile containing 0.1% formic acid and 100 ng/mL of an appropriate internal standard added. Samples were then mixed and centrifuged (2000 g for 15 min) and an aliquot of the supernatant (100 μL) removed into a 96-deep well plate and diluted with an equal volume of water ready for analysis by LC-MS/MS. • The following data was obtained for the following compounds in the above assay (Table 5).

[2] = tested on: Aβ peptide production in rat primary neuronal culture; test: In vitro cellular assay: quantification of Aβ peptide in culture of neurons from rat fetus brain; assay type: cell-based, Wistar rat; conditions: Primary cortical neuron
Procedure: Quantification of Aβ Peptide in Culture of Neurons from Rat Fetus Brain
Primary neuronal cultures were prepared from the cerebral cortex of embryonic day 18 Wistar rats (Charles River, UK). Specifically, the embryos were aseptically removed from pregnant rats under ether anesthesia. The brain was isolated from the embryo and immersed in HBSS (Sigma Aldrich #H9269) containing 10 mM HEPES (Gibco #15630-056). The cerebral cortex was collected from the isolated brain under a stereoscopic microscope. The cerebral cortex fragments collected were enzymatically treated in an enzyme solution containing 0.05% trypsin-EDTA solution (GIBCO, #25300) at 37° C. for 20 minutes to disperse the cells. The cells were then washed twice and then gently resuspended in Neurobasal medium (Gibco #21103) supplemented with 2% B27 supplement (GIBCO #17504-044), 0.5 mM L-glutamine (GIBCO #25030), 1×N2 (GIBCO #17502-048), 100 μg/ml Pen/Strep (GIBCO 15140-122) and 5% heat inactivated FCS (PAA #A15-701). The cell dispersion was filtered through a 40-μm nylon mesh (BD Falcon #352340) to remove the remaining cell mass, and thus a neuronal cell suspension was obtained. The neuronal cell suspension was diluted with the medium above and then plated in a volume of 100 μL/well at an initial cell density of 3.25×10^5 cells/ml in poly-D-lysine coated 96-well culture plate (Greiner #655940). The plated cells were cultured in the culture plate at 37° C. in 5% CO2-95% air for 24 hrs. The total amount of the medium was replaced with ‘assay Neurobasal medium’ (as above excluding heat inactivated FCS), and then the cells were cultured for a further five days.
The drug was added to the culture plate on Day 6 of culture as follows. 8 point compound serial dilutions were generated in DMSO at a concentration of ×1000 that of the final assay concentration (FAC). Compound solutions were then prepared by adding 999 ul of ‘Assay Neurobasal media’ (as described in above section) to 1 ul of DMSO compound stock. The total amount of the medium was removed from each of the cell plate wells, and […] of ‘Assay Neurobasal media’ was added followed by […] of compound solution. The final DMSO concentration was 0.1%. […]
Cell survival was evaluated using an Alamar assay according to the following procedure. […]
Measurement of fluorescence intensity for each well was the carried out at 540/590 nm using a Pherastar plus plate reader (BMG labtech). […]
Human/Rat β Amyloid (42) ELISA Kit Wako (#290-62601) and Human/Rat P Amyloid (40) ELISA Kit Wako (#294-62501) from Wako Pure Chemical Industries, Ltd. were used for Aβ ELISA. […] The results were shown as percentage of the control groups and IC50 values for each compound were determined using four parameter logistic fit model using the XLFIT5 software package (IDBS).

[3] = pH 7.4, 1 μg/mL in rat plasma, mean of n = 3, read-out: Rat PPB (%) (converted)
[4] = pH 7.4, fraction unbound, 1 μg/mL in rat plasma, mean of n = 3, read-out: Rat Plasma fu
[5] = Aβ ELISA, rat primary cortical neurons, Aβ species (x-40 or x-42) not given, read-out: IC50

COc1cnc(C(=O)Nc2ccc(F)c([C@]34CO[C@H](CF)[C@H]3CSC(N)=N4)c2)cn1 [Example 2, N-(3-((4aS,5S,7aS)-2-amino-5-(fluoromethyl)-4a,5,7,7a-tetrahydro-4H-furo[3,4-d][1,3]thiazin-7a-yl)-4-fluorophenyl)-5-methoxypyrazine-2-carboxamide]
fraction unbound at 6 h, 1 μg/mL [1, 3]: 0.251
fraction unbound at 6 h, 1 μg/mL [1, 4]: 0.252
IC50 ([2]; Rattus norvegicus): 4 nM

COc1cnc(C(=O)Nc2ccc(F)c([C@]34CO[C@H](C(F)F)[C@H]3CSC(N)=N4)c2)cn1 [Example 3, N-(3-((4aS,5S,7aS)-2-amino-5-(difluoromethyl)-4a,5,7,7a-tetrahydro-4H-furo[3,4-d][1,3]thiazin-7a-yl)-4-fluorophenyl)-5-methoxypyrazine-2-carboxamide]
fraction unbound at 6 h, 1 μg/mL [1, 3]: 0.143
fraction unbound at 6 h, 1 μg/mL [1, 4]: 0.143
IC50 [2, 5]: 4 nM

COc1cnc(C(=O)Nc2cc(F)c(F)c([C@]34CO[C@H](CF)[C@H]3CSC(N)=N4)c2)cn1 [Example 4, N-(3-((4aS,5S,7aS)-2-amino-5-(fluoromethyl)-4a,5,7,7a-tetrahydro-4H-furo[3,4-d][1,3]thiazin-7a-yl)-4,5-difluorophenyl)-5-methoxypyrazine-2-carboxamide]
fraction unbound at 6 h, 1 μg/mL [1, 3]: 0.13
fraction unbound at 6 h, 1 μg/mL [1, 4]: 0.13
IC50 [2, 5]: 12 nM
